Results published in publication PMC7156458, “Synthetic biology based construction of biological activity-related library of fungal decalin-containing diterpenoid pyrones” (Nature Communications, 2020).
Where two headings read alike, the source gives them in different places.

Columns and labels:
[1] = test system: SK-OV-3; experiment: cells; set-up: species or system JFCR39 human cancer cell lines; JFCR39 panel growth inhibition, sulforhodamine B total protein after 48 h; settings: Homo sapiens, SK-OV-3, 48 h
Method: (§1) Supplementary Note 24. Antiproliferative effects across the panel of JFCR39 cancer cell lines A panel of 39 human cancer cell lines, termed JFCR39, were previously described13-16. Cells were grown in RPMI-1640 (FUJIFILM Wako Pure Chemical Corporation, Tokyo, Japan) supplemented with 1 µg mL-1 kanamycin and 5% (v/v) fetal bovine serum (Nichirei Biosciences Inc, Tokyo, Japan) and incubated at 37°C in a humidified atmosphere supplemented with 5% CO2. Drug efficacy was assessed as changes in total cellular protein after 48 hours of drug treatment using a sulforhodamine B assay. Assays were done in duplicate and the GI50 was calculated as described previously13,16. The antitumor profile across the JFCR39 panel, or fingerprints were then compared to reference database containing ~2000 compounds by COMPARE algorithm16,17. Initially, we evaluated new DDP analogues for their antiproliferative activities across the panel of 39 human cancer cell lines, JFCR39[50],[51].

[2] = test system: SNB-75; experiment: cells; set-up: species or system JFCR39 human cancer cell lines; JFCR39 panel growth inhibition, sulforhodamine B total protein after 48 h; settings: Homo sapiens, SNB-75, 48 h
Method: as §1

[3] = test system: SF-539; experiment: cells; set-up: species or system JFCR39 human cancer cell lines; JFCR39 panel growth inhibition, sulforhodamine B total protein after 48 h; settings: Homo sapiens, SF-539, 48 h
Method: as §1

[4] = test system: MCF-7 cells; experiment: cell cytotoxic effects against MCF-7 cells (72 h), A490; format: cell-based, human; settings: MCF-7, 72 h
[5] = cytotoxicity in Drosophila DL1 cells; format: cell-based; settings: Drosophila, DL1 cells (embryonic macrophage-derived), DL1 cells
Method: (§2) We screened the DDPs on the Drosophila assay system for cytotoxicity, inhibitory activity of innate immune signalling and insecticidal activity. The cytotoxicity of the DDPs was evaluated using two cell lines, embryonic macrophage-derived DL1 cells[58]–[60] and larval blood cell-derived l(2)mbn cells, and their IC50 values are listed in Supplementary Table 23.

[6] = test system: DL1 cells; experiment: cytotoxicity in Drosophila DL1 cells; format: cell-based; settings: for IC50: Drosophila melanogaster
Method: as §2

[7] = test system: l(2)mbn cells; experiment: cytotoxicity in Drosophila l(2)mbn cells; format: cell-based; settings: for Luminescence Raw2: replicate 2; for Luminescence Raw1: replicate 1; for IC50: Drosophila melanogaster, cytotoxicity
Method: as §2

[8] = replicate 1, relative to DMSO 1%, read-out: % viability, viability 1
[9] = replicate 2, relative to DMSO 1%, read-out: % viability, viability 2

With `C=C1CC[C@@H]2[C@](C)(CC[C@H]3O[C@H](C=C(C)C)C[C@@]23C)[C@@H]1Cc1c(OC)oc(CO)c(C(=O)OC)c1=O` [Compound 21] the GI50 [1] was 17300 nM, the GI50 [2] was 17800 nM and the GI50 [3] was 18400 nM. The viability at 0.1 µM ([4]; Homo sapiens, MCF7, 72 h, 0.1 µM (DMSO 0.002%), read-out: A490 (control =1) ave) was 114%, the viability at 1 µM ([4]; Homo sapiens, MCF7, 72 h, 1 µM (DMSO 0.02%), read-out: A490 (control =1) ave) was 118% and the viability at 10 µM ([4]; Homo sapiens, MCF7, 72 h, 10 µM (DMSO 0.2%), read-out: A490 (control =1) ave) was 103%. The A490 ave ([4]; 0.1 µM (DMSO 0.002%), control 1.064) was 1.213, the A490 ave ([4]; 1 µM (DMSO 0.02%), control 1.104) was 1.298 and the A490 ave ([4]; 10 µM (DMSO 0.2%), control 1.049) was 1.083. The viability at 0.04 µM [5, 8] was 5.78%, the viability at 0.04 µM [5, 9] was 8.79% and the viability at 0.2 µM [5, 8] was 4.01%. It also gave a viability at 0.2 µM [5, 9] of 4.17%, a viability at 1 µM [5, 8] of 3.52% and a viability at 1 µM [5, 9] of 2.4%. It also gave a viability at 4 µM [5, 8] of 3.47%, a viability at 4 µM [5, 9] of 3.41% and a viability at 10 µM [5, 8] of 3.5%. It also gave a viability at 10 µM [5, 9] of 3.92%, a viability at 20 µM [5, 8] of 2.31% and a viability at 20 µM [5, 9] of 3.01%. For the same compound, the “Luminescence Raw1” value ([6]; DL1 cells, 0.04 µM, replicate 1) was 237970, the “Luminescence Raw2” value ([6]; DL1 cells, 0.04 µM, replicate 2) was 362006 and the “Luminescence Raw1” value ([6]; DL1 cells, 0.2 µM, replicate 1) was 165136. The “Luminescence Raw2” value ([6]; DL1 cells, 0.2 µM, replicate 2) was 171986, the “Luminescence Raw1” value ([6]; DL1 cells, 1 µM, replicate 1) was 144944 and the “Luminescence Raw2” value ([6]; DL1 cells, 1 µM, replicate 2) was 98793. The “Luminescence Raw1” value ([6]; DL1 cells, 4 µM, replicate 1) was 143141, the “Luminescence Raw2” value ([6]; DL1 cells, 4 µM, replicate 2) was 140618 and the “Luminescence Raw1” value ([6]; DL1 cells, 10 µM, replicate 1) was 144223. For the same compound, the “Luminescence Raw2” value ([6]; DL1 cells, 10 µM, replicate 2) was 161530, the “Luminescence Raw1” value ([6]; DL1 cells, 20 µM, replicate 1) was 95187 and the “Luminescence Raw2” value ([6]; DL1 cells, 20 µM, replicate 2) was 124032. For the same compound, the IC50 ([6]; DL1 cells, cytotoxicity, average of two replicates, read-out: IC50 Average) was under 40 nM, the IC50 ([6]; DL1 cells, cytotoxicity, replicate 1, read-out: IC50 (1)) was under 40 nM and the IC50 ([6]; DL1 cells, cytotoxicity, replicate 2, read-out: IC50 (2)) was under 40 nM. The IC50 ([6]; DL-1 cell line, cell growth, read-out: IC50) was under 40 nM, the “Luminescence Raw2” value ([7]; 0.2 µM) was 2750409 and the “Luminescence Raw1” value ([7]; 0.4 µM) was 2719029. For the same compound, the “Luminescence Raw2” value ([7]; 0.4 µM) was 2813892, the “Luminescence Raw1” value ([7]; 0.8 µM) was 2929318 and the “Luminescence Raw2” value ([7]; 0.8 µM) was 2922825. The “Luminescence Raw1” value ([7]; 1 µM) was 2523535, the IC50 ([7]; average of two replicates, read-out: IC50 Average) was 2660 nM and the IC50 ([7]; average±SEM, read-out: IC50) was 2660 ± 220 nM. It also gave an IC50 ([7]; replicate 1, read-out: IC50 (1)) of 2440 nM and an IC50 ([7]; replicate 2, read-out: IC50 (2)) of 2880 nM.
